# Data as given in patent US11066414B2, “Cot modulators and methods of use thereof” (Gilead Sciences, Inc., priority 2015, dated 2021).
# pIC50: −log10 of the molar value.
# Target: Human Cot (Homo sapiens (Human), UniProt P41279)
# Test: High Throughput Cot Biochemical Assay
# Details: IC50 HTRF, Cot HTRF (TR-FRET KinEASE) biochemical assay, 400 μM ATP
# Human Cot, sequence (P41279 30-397): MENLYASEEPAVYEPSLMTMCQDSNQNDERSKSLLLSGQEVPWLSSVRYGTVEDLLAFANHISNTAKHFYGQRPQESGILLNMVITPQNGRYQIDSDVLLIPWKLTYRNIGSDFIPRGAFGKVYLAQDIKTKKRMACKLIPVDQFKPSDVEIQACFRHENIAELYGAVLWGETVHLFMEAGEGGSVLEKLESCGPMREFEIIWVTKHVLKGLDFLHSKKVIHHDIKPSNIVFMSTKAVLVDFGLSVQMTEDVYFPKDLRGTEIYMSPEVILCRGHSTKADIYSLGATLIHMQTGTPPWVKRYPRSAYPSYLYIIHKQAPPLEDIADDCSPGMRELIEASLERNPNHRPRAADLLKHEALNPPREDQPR
row,Compound,pIC50
1,"Cc1nc(F)ccc1[C@H](Nc1cc(Cl)c2ncc(C#N)c(NCC(C)(C)C)c2c1)c1nnn(C2(C)CC2)c1F [Example 947, (S)-8-chloro-6-(((5-fluoro-1-(1-methylcyclopropyl)-1H-1,2,3-triazol-4-yl)(6-fluoro-2-methyl-pyridin-3-yl)methyl)amino)-4-(neopentylamino)quinoline-3-carbonitrile]",8.52
2,"C[C@@H](CF)n1cc([C@@H](Nc2cc(Cl)c3ncc(C#N)c(NCC(C)(C)C)c3c2)c2cccc3ncccc23)nn1 [Example 803, 8-chloro-6-(((S)-(1-((S)-1-fluoropropan-2-yl)-1H-1,2,3-triazol-4-yl)(quinolin-5-yl)methyl)amino)-4-(neopentylamino)quinoline-3-carbonitrile]",8.15
3,"Cn1ccc2c([C@H](Nc3cc(C#N)c4ncc(C#N)c(NCC(C)(C)C)c4c3)c3cn(C4(C(F)F)CC4)nn3)ccnc21 [Example 873, (S)-6-(((1-(1-(difluoromethyl)cyclopropyl)-1H-1,2,3-triazol-4-yl)(1-methyl-1H-pyrrolo[2,3-b]pyridin-4-yl)methyl)amino)-4-(neopentylamino)quinoline-3,8-dicarbonitrile]",8.30
4,"CC(C)(CNc1c(C#N)cnc2c(C#N)cc(N[C@H](c3cn(C45CC(C4)C5)nn3)c3ccc(F)c4ncccc34)cc12)C(F)(F)F [Example 816, (S)-6-(((1-(bicyclo[1.1.1]pentan-1-yl)-1H-1,2,3-triazol-4-yl)(8-fluoroquinolin-5-yl)methyl)amino)-4-((3,3,3-trifluoro-2,2-dimethylpropyl)amino)quinoline-3,8-dicarbonitrile]",9.00
5,"Cc1nc(F)ccc1[C@H](Nc1cc(C#N)c2ncc(C#N)c(NCC(C)(C)C)c2c1)c1nnn(C)c1F [Example 906, (S)-6-(((5-fluoro-1-methyl-1H-1,2,3-triazol-4-yl)(6-fluoro-2-methylpyridin-3-yl)methyl)amino)-4-(neopentylamino)quinoline-3,8-dicarbonitrile]",8.40

# Same assay, conditions: IC50 HTRF, Cot HTRF (TR-FRET) biochemical assay
row,Compound,pIC50
1,"[2H]C(Nc1cc(Cl)c2ncc(C#N)c(NCC(C)(C)C)c2c1)(c1cn(C2CC2)nn1)c1ccc(F)nc1C (centres unmarked) [Example 111, 8-chloro-6-(((1-cyclopropyl-1H-1,2,3-triazol-4-yl)(6-fluoro-2-methylpyridin-3-yl)methyl-d)amino)-4-(neopentylamino)quinoline-3-carbonitrile]",8.70
2,"CC(C)(C)CNc1c(C#N)cnc2c(Cl)cc(N[C@H](c3cn(C4CC4)nn3)c3csc4c3CCN(C3COC3)C4)cc12 [Example 80, (S)-8-chloro-6-(((1-cyclopropyl-1H-1,2,3-triazol-4-yl)(6-(oxetan-3-yl)-4,5,6,7-tetrahydrothieno[2,3-c]pyridin-3-yl)methyl)amino)-4-(neopentylamino)-quinoline-3-carbonitrile]",9.00
3,"Cc1nc(F)ccc1[C@H](Nc1cc(C#N)c2ncc(C#N)c(NCC(C)(C)C)c2c1)c1cn(C23CC(C2)C3)nn1 [Example 649, (S)-6-(((1-(bicyclo[1.1.1]pentan-1-yl)-1H-1,2,3-triazol-4-yl)(6-fluoro-2-methylpyridin-3-yl)methyl)amino)-4-(neopentylamino)quinoline-3,8-dicarbonitrile]",8.70
4,"CCN1CCC(n2cc(C(Nc3cc(Cl)c4ncc(C#N)c(Nc5ccc(F)c(Cl)c5)c4c3)c3cn(C)nn3)nn2)CC1 (centres unmarked) [Example 396, 8-chloro-4-((3-chloro-4-fluoro-phenyl)amino)-6-(((1-(1-ethyl-piperidin-4-yl)-1H-1,2,3-triazol-4-yl)(1-methyl-1H-1,2,3-triazol-4-yl)methyl)amino)quinoline-3-carbonitrile]",7.37
5,"CC(C)(C)CNc1c(C#N)cnc2c(C#N)cc(N[C@H](c3cn(C4CC4)nn3)c3cccc4ncccc34)cc12 [Example 467, (S)-6-(((1-cyclopropyl-1H-1,2,3-triazol-4-yl)(quinolin-5-yl)methyl)amino)-4-(neopentylamino)quinoline-3,8-dicarbonitrile]",8.70
6,"CC(C)(C)OC(=O)N1CCC(n2cc([C@@H](Nc3cc(Cl)c4ncc(C#N)c(Nc5ccc(F)c(Cl)c5)c4c3)c3ccsc3)nn2)CC1 [Example 394, tert-butyl (S)-4-(4-(((8-chloro-4-((3-chloro-4-fluorophenyl)amino)-3-cyanoquinolin-6-yl)amino)(thiophen-3-yl)methyl)-1H-1,2,3-triazol-1-yl)piperidine-1-carboxylate]",6.83
7,"Cc1nc(F)ccc1[C@H](Nc1cc(F)c2ncc(C#N)c(NCC(C)(C)C)c2c1)c1cn(C2(C(F)F)CC2)nn1 [Example 514, (S)-6-(((1-(1-(difluoromethyl)cyclopropyl)-1H-1,2,3-triazol-4-yl)(6-fluoro-2-methylpyridin-3-yl)methyl)amino)-8-fluoro-4-(neopentylamino)quinoline-3-carbonitrile]",8.40
8,"N#Cc1cnc2c(Cl)cc(N[C@H](c3cn(CCO)nn3)c3cnc(Cl)cc3Cl)cc2c1Nc1ccc(F)c(Cl)c1 [Example 330, (S)-8-chloro-4-((3-chloro-4-fluorophenyl)amino)-6-(((4,6-dichloropyridin-3-yl)(1-(2-hydroxy-ethyl)-1H-1,2,3-triazol-4-yl)methyl)-amino)quinoline-3-carbonitrile]",7.23
9,"N#Cc1csc([C@H](Nc2cc(Cl)c3ncc(C#N)c(Nc4ccc(F)c(Cl)c4)c3c2)c2cn(CCO)nn2)c1 [Example 333, (R)-8-chloro-4-((3-chloro-4-fluorophenyl)amino)-6-(((4-cyanothiophen-2-yl)(1-(2-hydroxyethyl)-1H-1,2,3-triazol-4-yl)methyl)amino)quinoline-3-carbonitrile]",8.52
10,"CC(C)(C)CNc1c(C#N)cnc2c(C#N)cc(N[C@H](c3cn(C4(C(F)(F)F)CC4)nn3)c3cccc4ccncc34)cc12 [Example 535, (S)-6-((isoquinolin-8-yl(1-(1-(trifluoro-methyl)cyclopropyl)-1H-1,2,3-triazol-4-yl)methyl)amino)-4-(neopentylamino)-quinoline-3,8-dicarbonitrile]",8.70
11,"CCN1CC[C@@H](n2cc(C(Nc3cc(Cl)c4ncc(C#N)c(Nc5ccc(F)c(Cl)c5)c4c3)c3cccnc3)nn2)C1 (stereo partly drawn) [Example 402, 8-chloro-4-((3-chloro-4-fluoro-phenyl)amino)-6-(((1-((R)-1-ethylpyrrolidin-3-yl)-1H-1,2,3-triazol-4-yl)(pyridin-3-yl)methyl)-amino)quinoline-3-carbonitrile]",7.72
12,"CC(C)(C)CNc1c(C#N)cnc2c(C#N)cc(N[C@H](c3cn(C4(C(F)F)CC4)nn3)c3cccc4ncsc34)cc12 [Example 424, (S)-6-((benzo[d]thiazol-7-yl(1-(1-(difluoromethyl)cyclopropyl)-1H-1,2,3-triazol-4-yl)methyl)amino)-4-(neopentylamino)quinoline-3,8-dicarbonitrile]",8.70
13,"CC(C)(C)CNc1c(C#N)cnc2c(Cl)cc(N[C@H](c3cn(C4(C(F)(F)F)CC4)nn3)c3ccc(F)c4ncccc34)cc12 [Example 617, (S)-8-chloro-6-(((8-fluoroquinolin-5-yl)(1-(1-(trifluoromethyl)cyclopropyl)-1H-1,2,3-triazol-4-yl)methyl)amino)-4-(neopentylamino)quinoline-3-carbonitrile]",8.05
14,"CC(C)(C)CNc1c(C#N)cnc2c(Cl)cc(N[C@H](c3cn(C4(C(F)F)CC4)nn3)c3cccc4c3CNC4)cc12 [Example 445, (S)-8-chloro-6-(((1-(1-(difluoromethyl)-cyclopropyl)-1H-1,2,3-triazol-4-yl)(isoindolin-4-yl)methyl)amino)-4-(neopentylamino)quinoline-3-carbonitrile]",8.70
15,"Cn1ccc2c([C@H](Nc3cc(Cl)c4ncc(C#N)c(NCC(C)(C)C)c4c3)c3cn(C4(C(F)(F)F)CC4)nn3)cccc2c1=O [Example 618, (S)-8-chloro-6-(((2-methyl-1-oxo-1,2-dihydroisoquinolin-5-yl)(1-(1-(trifluoromethyl)cyclopropyl)-1H-1,2,3-triazol-4-yl)methyl)amino)-4-(neopentylamino)quinoline-3-carbonitrile]",8.52
16,"CCN1CCc2c([C@H](Nc3cc(Cl)c4ncc(C#N)c(Nc5ccc(F)c(Cl)c5)c4c3)c3c[nH]nn3)csc2C1 [Example 270, (S)-8-chloro-4-((3-chloro-4-fluoro-phenyl)amino)-6-(((6-ethyl-4,5,6,7-tetrahydrothieno[2,3-c]pyridin-3-yl)(1H-1,2,3-triazol-4-yl)methyl)-amino)quinoline-3-carbonitrile]",8.40
17,"N#Cc1cnc2c(Cl)cc(N[C@@H](c3cccnc3)c3cn(CCO)nn3)cc2c1Nc1ccc(F)c(Cl)c1 [Example 336, (S)-8-chloro-4-((3-chloro-4-fluoro-phenyl)amino)-6-(((1-(2-hydroxyethyl)-1H-1,2,3-triazol-4-yl)(pyridin-3-yl)methyl)amino)quinoline-3-carbonitrile]",8.70
18,"N#Cc1cnc2c(Cl)cc(NC(c3cccnc3)c3cn([C@@H]4CCN(C(=O)OCc5ccccc5)C4)nn3)cc2c1Nc1ccc(F)c(Cl)c1 (stereo partly drawn) [Example 400, benzyl (3R)-3-(4-(((8-chloro-4-((3-chloro-4-fluorophenyl)amino)-3-cyanoquinolin-6-yl)amino)(pyridin-3-yl)methyl)-1H-1,2,3-triazol-1-yl)pyrrolidine-1-carboxylate]",6.92

# Same assay, conditions: read-out: IC50 HTRF; Cot HTRF (TR-FRET) biochemical assay
row,Compound,pIC50
1,"Cn1cc([C@H](Nc2cc(Cl)c3ncc(C#N)c(Nc4ccc(F)c(Cl)c4)c3c2)c2cccnc2)nn1 [Example 343, (R)-8-chloro-4-((3-chloro-4-fluorophenyl)amino)-6-(((1-methyl-1H-1,2,3-triazol-4-yl)(pyridin-3-yl)methyl)amino)quinoline-3-carbonitrile]",6.30
2,Cc1n[nH]c2cccc([C@H](Nc3cc(C#N)c4ncc(C#N)c(NCC(C)(C)C)c4c3)c3cn(C4(C(F)F)CC4)nn3)c12 [Example 571],8.70
3,"Cc1ncsc1[C@H](Nc1cc(Cl)c2ncc(C#N)c(NCC(C)(C)C)c2c1)c1cn(C2(C(F)(F)F)CC2)nn1 [Example 701, (R)-8-chloro-6-(((4-methylthiazol-5-yl)(1-(1-(trifluoromethyl)cyclopropyl)-1H-1,2,3-triazol-4-yl)methyl)airiino)-4-(neopentylamino)quinoline-3-carbonitrile]",8.00
